Here are results for five compounds from patent US12421245B2, “Pharmaceutically acceptable acid salt of free base of GLP1 receptor agonist, and preparation method therefor” (Hangzhou Zhongmei Huadong Pharmaceutical Co., Ltd., priority 2020, dated 2025).

Structures can show the parent of a compound that is named as a salt.

Assay type in all cases: physicochemical
Series [1] can be described thus: Assessment of solid stability (XRPD and HPLC after storage). The following applies: for Change of crystal form, yes/no: XRPD after 40° C./100% RH/7 d; for HPLC (area %) 40° C./100% RH/7 d: after 40° C./100% RH for 1 week; for HPLC (area %) Initiation: initial, before storage; for Stability relative to OAD2 dihydrochloride (in words): summary statement. Here is the method:
The stability of crystal form B of hydrochloride, crystal form C of sulfate, crystal form C of p-toluenesulfonate and compound I was compared. After placement under a 40° C./100% RH condition for 1 week, physical and chemical stability was assessed by means of XRPD and HPLC, respectively, and the results were shown in Table 10.

Series [2] in a line: Hygroscopicity, dynamic moisture adsorption (DVS) test. The following applies: for Moisture adsorption rate: DVS, 25° C., 80% RH; for Change of crystal form, yes/no: before and after the DVS test. The procedure: 5. Dynamic moisture adsorption (DVS):
Dynamic moisture adsorption (DVS) curves were collected on DVS Intrinsic of Surface Measurement Systems (SMS). The relative humidity at 25° C. was corrected with the deliquescent points of LiCl, Mg (NO3) 2 and KCl.
Five crystalline salts were subject to DVS test (25° C., 80% RH).

A short description of series [3]: Assessment of pH solubility of crystalline salts in buffers. The procedure: 1) Assessment of pH Solubility The solubility of crystal form B of hydrochloride, crystal form C of p-toluenesulfonate, crystal form C of sulfate, and crystal form C of hydrobromide under different pH conditions were determined and compared, and the results were shown in Table 8. All the crystalline salts had low solubility in buffers of pH 3.0 and 5.0.

As usually defined, the Solubility is the dissolved amount per volume that the medium holds. With `CC[C@@H](c1ccccc1)N1Cc2cc3c(cc2C[C@H]1C(=O)N[C@@H](Cc1ccc(-c2ccnc(C)c2C)cc1)C(=O)O)OC[C@H](c1ccc(OCc2ccc(Cl)c(Cl)c2)cc1)O3` [Crystal form B of hydrochloride, (S)-2-(3S,8S)-3-(4-(3,4-dichlorobenzyloxy)phenyl-7-((S)-1-phenylpropyl)-2,3,6,7,8,9-hexahydro-[1,4]-dioxino[2,3-g]isoquinolin-8-ylformylamino)-3-(4-(2,3-dimethylpyridin-4-yl)phenyl)propionic acid], the “Change of crystal form, yes/no” value in series [1] and in series [2] was “No” each time. For the same compound, the “HPLC (area %) 40° C./100% RH/7 d” value in series [1] amounted to 98.18 area %. Further, in series [1], the “HPLC (area %) Initiation” value is listed as 98.37 area %. Also, in series [1], the “Stability relative to OAD2 dihydrochloride (in words)” value is “superior stability relative to OAD2 dihydrochloride”. In series [2], the Moisture adsorption rate stood at 0.8%. The Solubility in series [3] (pH 1.0) is 381 µg/mL; in series [3] (pH 2.0) it was 17 µg/mL; in series [3] (pH 3.0), 2 µg/mL; in series [3] (pH 5.0), 1 µg/mL; in series [3] (pH 7.0), 109 µg/mL.

Take `CC[C@@H](c1ccccc1)N1Cc2cc3c(cc2C[C@H]1C(=O)N[C@@H](Cc1ccc(-c2ccnc(C)c2C)cc1)C(=O)O)OC[C@H](c1ccc(OCc2ccc(Cl)c(Cl)c2)cc1)O3` [OAD2 dihydrochloride, (S)-2-(3S,8S)-3-(4-(3,4-dichlorobenzyloxy)phenyl-7-((S)-1-phenylpropyl)-2,3,6,7,8,9-hexahydro-[1,4]-dioxino[2,3-g]isoquinolin-8-ylformylamino)-3-(4-(2,3-dimethylpyridin-4-yl)phenyl)propionic acid dihydrochloride, reference compound]: the Moisture adsorption rate in series [2] (dihydrochloride) is 8.3%.

`CC[C@@H](c1ccccc1)N1Cc2cc3c(cc2C[C@H]1C(=O)N[C@@H](Cc1ccc(-c2ccnc(C)c2C)cc1)C(=O)O)OC[C@H](c1ccc(OCc2ccc(Cl)c(Cl)c2)cc1)O3` [Crystal form C of hydrobromide, (S)-2-(3S,8S)-3-(4-(3,4-dichlorobenzyloxy)phenyl-7-((S)-1-phenylpropyl)-2,3,6,7,8,9-hexahydro-[1,4]-dioxino[2,3-g]isoquinolin-8-ylformylamino)-3-(4-(2,3-dimethylpyridin-4-yl)phenyl)propionic acid]: the Moisture adsorption rate in series [2] is recorded as 1.4%. The “Change of crystal form, yes/no” value in series [2] is “No”. Besides, the Solubility in series [3] (pH 1.0) amounted to 496 µg/mL; in series [3] (pH 2.0), 16 µg/mL; in series [3] (pH 3.0), 1 µg/mL; in series [3] (pH 5.0) it was 4 µg/mL; in series [3] (pH 7.0) it was 39 µg/mL.

Take `CC[C@@H](c1ccccc1)N1Cc2cc3c(cc2C[C@H]1C(=O)N[C@@H](Cc1ccc(-c2ccnc(C)c2C)cc1)C(=O)O)OC[C@H](c1ccc(OCc2ccc(Cl)c(Cl)c2)cc1)O3` [Crystal form C of p-toluenesulfonate, (S)-2-(3S,8S)-3-(4-(3,4-dichlorobenzyloxy)phenyl-7-((S)-1-phenylpropyl)-2,3,6,7,8,9-hexahydro-[1,4]-dioxino[2,3-g]isoquinolin-8-ylformylamino)-3-(4-(2,3-dimethylpyridin-4-yl)phenyl)propionic acid]: the “Solid stability (in words)” value in series [1] (40° C./100% RH, 1 week) is recorded as “the best stability”. Further, the “Change of crystal form, yes/no” value in series [1] and in series [2] was “No” each time. Moreover, in series [1], the “HPLC (area %) 40° C./100% RH/7 d” value is on record as 98.87 area %. Besides, in series [1], the “HPLC (area %) Initiation” value is given as 98.85 area %. In series [1], the “Stability relative to OAD2 dihydrochloride (in words)” value is reported as “superior stability relative to OAD2 dihydrochloride”. In series [2], this compound showed a Moisture adsorption rate of 0.6%. Also, the “Solubility compared with other crystalline salts (in words)” value in series [3] (buffer of pH 1.0) is reported as “significantly higher solubility than other crystalline salts”. The Solubility in series [3] (pH 1.0) amounted to 1423 µg/mL; in series [3] (pH 2.0), 118 µg/mL; in series [3] (pH 3.0), 1 µg/mL; in series [3] (pH 5.0), 1 µg/mL; in series [3] (pH 7.0) it was 93 µg/mL.

Consider `CC[C@@H](c1ccccc1)N1Cc2cc3c(cc2C[C@H]1C(=O)N[C@@H](Cc1ccc(-c2ccnc(C)c2C)cc1)C(=O)O)OC[C@H](c1ccc(OCc2ccc(Cl)c(Cl)c2)cc1)O3` [Crystal form C of sulfate, (S)-2-(3S,8S)-3-(4-(3,4-dichlorobenzyloxy)phenyl-7-((S)-1-phenylpropyl)-2,3,6,7,8,9-hexahydro-[1,4]-dioxino[2,3-g]isoquinolin-8-ylformylamino)-3-(4-(2,3-dimethylpyridin-4-yl)phenyl)propionic acid], for which the “Change of crystal form, yes/no” value in series [1] and in series [2] was “No” each time. The “HPLC (area %) 40° C./100% RH/7 d” value in series [1] came to 98.78 area %. Also, in series [1], the “HPLC (area %) Initiation” value was 98.85 area %. For the same compound, the “Stability relative to OAD2 dihydrochloride (in words)” value in series [1] is recorded as “superior stability relative to OAD2 dihydrochloride”. Moreover, the Moisture adsorption rate in series [2] was found to be 3.2%. The Solubility in series [3] (pH 1.0) is 811 µg/mL; in series [3] (pH 2.0), 74 µg/mL; in series [3] (pH 3.0), 1 µg/mL; in series [3] (pH 5.0) it was 1 µg/mL; in series [3] (pH 7.0), 96 µg/mL.
